This is an account of results in patent US10966990B2, “Midazolam in flexible bags” (InfoRLife SA, priority 2018, dated 2021).

Series [1] in a line: solubility study of midazolam base in aqueous solution (pH-dependent). It is filed as physicochemical. The settings on record: midazolam 2 mg/mL in a solution of 0.9% NaCl. The method, then: The solubility of midazolam is less than 0.1 mg/mL at neutral pH and it increases considerably in acidic media. A solubility study has been performed to evaluate the use of midazolam base in the proposed formulation. Since the solubility of midazolam is pH-dependent, the purpose of this study was to evaluate the pH value at which midazolam becomes soluble in aqueous solution. Midazolam at a concentration of 2 mg/mL is soluble in a solution of 0.9% NaCl when the pH reaches a value of about 3.2 pH. The solubility increases at lower pHs. The desired pH of the formulation is about from about 2.5 to about 3.5, preferably 2.8 to 3.2 and more preferably about pH 3. Sufficient acid is added to the solution to achieve the desired pH. Any pharmaceutically acid may be used. Preferably the acid is a pharmaceutically acceptable mineral acid, most preferably hydrochloric acid. If necessary a pharmaceutically acceptable base may be used to raise the pH if needed. The preferred bases are pharmaceutically acceptable inorganic bases such as sodium hydroxide and potassium hydroxide. Sodium hydroxide is the preferred base.

The conditions of series [2]: neutral pH; cited from earlier work.
For series [3] the following is noted: cited from earlier work.

As for `Cc1ncc2n1-c1ccc(Cl)cc1C(c1ccccc1F)=NC2` [Midazolam], the “pH value at which midazolam becomes soluble” value in series [1] is reported as “about 3.2 pH”. Moreover, the solubility of midazolam result in series [2] is listed as “less than 0.1 mg/mL”. The storage of bag result in series [3] (isotonic saline IV bag, room temperature) was “can be stored overnight at room temperature”. For the same molecule, the useful life in series [3] (midazolam in lactate Ringer's solution in IV bag) was 4 h.
